Data reported in article PMC8911025, “Design, Synthesis, and Biological Evaluation of New Azulene-Containing Chalcones” (Materials, 2022).
In brackets after ≈: the same amount, converted by molar mass.

Assays:
[1] = system: S. aureus; assay: Known antibacterial activity of literature chalcones used for QSAR; assay type: cell-based, Staphylococcus aureus; conditions: Aexp = 0.1 + log (k/MIC), k = 1.250
Experimental: The QSAR studies were carried out on 48 chalcones, including 10 synthesized azulenyl-chalcones, in order to identify the physicochemical parameter responsible for their antimicrobial activity against Staphylococcus aureus. The geometry optimization of the molecules was completed using PCModel and MOPAC programs. The descriptors were calculated using MOPAC, PRECLAV, and DRAGON software, and the descriptors and QSAR equations were selected using the PRECLAV algorithm. The best QSAR model was chosen based on the statistical parameters such as the square of the correlation coefficient (r^2), the Fischer’s value of significance (F), and the standard error of estimate(s).
Quantitative structure−activity relationship (QSAR) studies involving 38 chalcone derivatives (Table 7) with known antibacterial activity against S. aureus were developed. These studies were based upon observed activity and molecular descriptors. […] Two QSAR studies were performed: (i) one in which all 48 molecules were included in the calibration set and (ii) another with an external validation test. For the latter, 10 molecules were randomly chosen to be part of the validation test, whereas the rest were part of the calibration set. The result of the external validation depends strongly, among other things, on the procedures for the extraction of the calibration and validation sets from the initial database.

[2] = system: S. aureus; design: method as in PMID 15801857, PMID 19275612, PMID 15142563; conditions: literature chalcones Nr. Crtl. 1-38 of Table 7; cited from earlier work
[3] = system: Escherichia coli ATCC 25922; assay: MIC, binary serial dilution in 96-well plates; assay type: cell-based; conditions: ATCC25922; Escherichia coli ATCC 25922, 24 h at 37 °C
Experimental: (§1) The antimicrobial activity of all compounds was assessed on Gram-positive bacteria (Staphylococcus aureus ATCC 25923), Gram-negative bacteria (Escherichia coli ATCC 25922, Pseudomonas aeruginosa ATCC 27853), and fungi (Candida parapsilosis ATCC 22019) using quantitative binary serial dilution method in 96-well plates. The negative control was represented by wells with culture medium, while positive control was the microbial strain in broth. Briefly, binary serial dilutions of the compounds performed in 100 μL of broth were seeded with microbial inoculum of 10^6 colony forming units (CFU)/mL and incubated for 24 h at 37 °C. […] Due to the fact that the obtained compounds were colored, after the incubation of the 96-well plates, from each well, 10 µL were seeded on agar plates (Plate Count Agar) to determine the inhibitory concentration. The same value of the inhibitory concentration was obtained in repeated experiments.
(§2) The antibacterial effect of the azulene moiety introduced in the chalcone structure was investigated against Gram-positive (Staphylococcus aureus ATCC 25923) and Gram-negative (Escherichia coli ATCC 25922, Pseudomonas aeruginosa ATCC 27853) bacteria, while the antifungal effect was tested against Candida parapsilosis ATCC 22019. To our knowledge, the antibacterial activity of azulene-containing chalcone compounds has not been reported previously; moreover, this is the first investigation of the biological properties of azulene-containing chalcones in general. The results expressed in terms of minimum inhibitory concentration (MIC) were determined by in vitro screening of the antimicrobial properties using the broth microdilution method and are summarized in Table 5.

[4] = system: Pseudomonas aeruginosa ATCC 27853; assay: MIC, binary serial dilution in 96-well plates; assay type: cell-based; conditions: ATCC27853; Pseudomonas aeruginosa ATCC 27853, 24 h at 37 °C
Experimental: as §1, §2

[5] = system: Staphylococcus aureus ATCC 25923; assay: MIC, binary serial dilution in 96-well plates; assay type: cell-based; conditions: for MIC: ATCC25923, Staphylococcus aureus ATCC 25923, 24 h at 37 °C; for Aexp: Aexp = 0.1 + log (k/MIC), k = 1.250, compounds synthesized herein
Experimental: as §1, §2

[6] = system: Candida parapsilosis ATCC 22019; assay: MIC (antifungal), binary serial dilution in 96-well plates; assay type: cell-based; conditions: Lodderomyces parapsilosis, ATCC22019; Candida parapsilosis ATCC 22019, 24 h at 37 °C
Experimental: as §1, §2
We further tested the azulene-containing chalcone compounds for antifungal activity against Candida parapsilosis ATCC 22019.

[7] = system: Candida parapsilosis; assay: Antibiofilm activity (crystal violet, A490); assay type: cell-based; conditions: Lodderomyces parapsilosis, biofilm, read-out: MBEC
Experimental: (§3) The effect of the chalcones on the biofilm formation was evaluated after the determination of the MICs. Briefly, the plates were emptied, washed to remove the nonadherent cells, fixed with methanol, and stained with crystal violet. The antibiofilm activity was determined after adding 33% acetic acid solution by measuring the absorbance at 490 nm, and the results are listed in Table 6.
(§4) The azulene-chalcone derivatives were tested for their ability to affect biofilm formation since 80% of the world’s microbial biomass is found in the biofilm state. The most efficient compound was again chalcone 6 with MBEC of 0.156–0.625 mg/mL (Table 6).

[8] = system: Escherichia coli; assay: Antibiofilm activity (crystal violet, A490); assay type: cell-based; conditions: biofilm, read-out: MBEC
Experimental: as §3, §4

[9] = system: Pseudomonas aeruginosa; assay: Antibiofilm activity (crystal violet, A490); assay type: cell-based; conditions: biofilm, read-out: MBEC
Experimental: as §3, §4

[10] = system: Staphylococcus aureus; assay: Antibiofilm activity (crystal violet, A490); assay type: cell-based; conditions: biofilm, read-out: MBEC
Experimental: as §3, §4

[11] = Cell viability assay (CellTiter Glo); assay type: cell-based; conditions: human; HEp-2 cells, 48 h, CellTiter Glo; read-out: IC50 (50% cytotoxic concentration)
Experimental: To assess the toxicity of the azulene-containing chalcones, the adherent cell line HEp-2 (American Cell Type Collection [ATCC] CCL-23^TM) was used.
In order to estimate the cytotoxicity of the compounds, HEp-2 cells (American Cell Type Collection (ATCC) CCL-23) were exposed to the azulene-containing chalcones at concentrations of 200, 100, 50, and 25 μg/mL and evaluated using CellTiter Glo kit (Promega, Madison, WI, USA) assay. The results presented in Figure 3 are expressed as viability percentages versus control.

Row | Structure (SMILES) | Aexp [1] | MIC [2] | also measured
1 | COc1ccc(/C=C/C(=O)c2ccccc2)cc1O [Nr. Crtl. 7] | 0.799 | 250 µg/mL (≈ 983 µM) | –
2 | COc1cc(/C=C/C(=O)c2ccc(Cl)cc2)ccc1O [Nr. Crtl. 9] | 0.799 | 250 µg/mL (≈ 866 µM) | –
3 | O=C(O)c1ccc(C(=O)/C=C/c2cc(F)cc(F)c2)cc1 [Nr. Crtl. 15] | 1.021 | 150 µg/mL (≈ 520 µM) | –
4 | O=C(O)c1ccc(C(=O)/C=C/c2ccccc2Cl)cc1 [Nr. Crtl. 13] | 1.021 | 150 µg/mL (≈ 523 µM) | –
5 | Cc1cc(C)cc(/C=C/C(=O)c2ccc(C(=O)O)cc2)c1 [Nr. Crtl. 25] | 1.322 | 75 µg/mL (≈ 268 µM) | –
6 | O=C(/C=C/c1ccc2cccccc1-2)c1ccc2ccccc2c1 [Compound 5, (E)-3-(Azulen-1-yl)-1-(naphthalen-2-yl)prop-2-en-1-one] | – | – | MIC [3]: 625 µg/mL (≈ 2030 µM); MIC [4]: 625 µg/mL (≈ 2030 µM); MIC [5]: 1250 µg/mL (≈ 4050 µM); Aexp [5]: 0.100; MIC [6]: 312 µg/mL (≈ 1010 µM); minimal effective concentration [7]: 625 µg/mL; minimal effective concentration [8]: 625 µg/mL; minimal effective concentration [9]: 1250 µg/mL; minimal effective concentration [10]: 2500 µg/mL; IC50 at 48 h [11]: 102 µg/mL (≈ 332 µM)
7 | O=C(O)c1ccc(C(=O)/C=C/c2ccccc2Br)cc1 [Nr. Crtl. 14] | 1.021 | 150 µg/mL (≈ 453 µM) | –
8 | COc1cc(/C=C/C(=O)c2ccccc2)ccc1O [Nr. Crtl. 1] | 0.498 | 500 µg/mL (≈ 1970 µM) | –
9 | O=C(/C=C/c1c(Cl)ccc(Cl)c1Cl)c1ccc(O)cc1 [Nr. Crtl. 35] | 2.197 | 10 µg/mL (≈ 30.5 µM) | –
10 | O=C(O)c1ccc(C(=O)/C=C/c2cccc(C(F)(F)F)c2)cc1 [Nr. Crtl. 28] | 1.595 | 40 µg/mL (≈ 125 µM) | –
11 | O=C(O)c1ccc(C(=O)/C=C/c2cccc([N+](=O)[O-])c2)cc1 [Nr. Crtl. 5] | 0.720 | 300 µg/mL (≈ 1010 µM) | –
12 | COc1cccc(/C=C/C(=O)c2ccccc2)c1O [Nr. Crtl. 18] | 1.100 | 125 µg/mL (≈ 492 µM) | –
13 | COc1cc(/C=C/C(=O)c2ccc(Cl)cc2)cc(OC)c1O [Nr. Crtl. 2] | 0.498 | 500 µg/mL (≈ 1570 µM) | –
14 | O=C(O)c1ccc(C(=O)/C=C/c2ccc(Cl)cc2)cc1 [Nr. Crtl. 12] | 1.021 | 150 µg/mL (≈ 523 µM) | –
15 | O=C(O)c1ccc(C(=O)/C=C/c2ccc(C(F)(F)F)cc2)cc1 [Nr. Crtl. 11] | 1.021 | 150 µg/mL (≈ 468 µM) | –
16 | COc1cccc(/C=C/C(=O)c2ccc(Cl)cc2)c1O [Nr. Crtl. 8] | 0.799 | 250 µg/mL (≈ 866 µM) | –
17 | O=C(/C=C/c1ccc(O)cc1)c1ccccc1 [Nr. Crtl. 16] | 1.100 | 125 µg/mL (≈ 557 µM) | –
18 | O=C(/C=C/c1ccc2cccccc1-2)c1cccc2ccccc12 [Compound 4, (E)-3-(Azulen-1-yl)-1-(naphthalen-1-yl)prop-2-en-1-one] | – | – | MIC [3]: 625 µg/mL (≈ 2030 µM); MIC [4]: 625 µg/mL (≈ 2030 µM); MIC [5]: 1250 µg/mL (≈ 4050 µM); Aexp [5]: 0.100; MIC [6]: 312 µg/mL (≈ 1010 µM); minimal effective concentration [7]: 625 µg/mL; minimal effective concentration [8]: 625 µg/mL; minimal effective concentration [9]: 625 µg/mL; minimal effective concentration [10]: 1250 µg/mL; IC50 at 48 h [11]: 61.8 µg/mL (≈ 200 µM)
19 | O=C(/C=C/c1cccc(Cl)c1Cl)c1ccc(O)cc1 [Nr. Crtl. 34] | 2.021 | 15 µg/mL (≈ 51.2 µM) | –
20 | O=C(/C=C/c1cccc(O)c1)c1ccc(Cl)cc1 [Nr. Crtl. 20] | 1.100 | 125 µg/mL (≈ 483 µM) | –

Row | Structure (SMILES) | Aexp [1] | MIC [2] | also measured
21 | COc1ccc(/C=C/C(=O)c2ccc(Cl)cc2)cc1O [Nr. Crtl. 26] | 1.401 | 62.5 µg/mL (≈ 216 µM) | –
22 | O=C(/C=C/c1ccc(Cl)cc1Cl)c1ccc(O)cc1F [Nr. Crtl. 32] | 1.896 | 20 µg/mL (≈ 64.3 µM) | –
23 | O=C(/C=C/c1cccc(O)c1)c1ccccc1 [Nr. Crtl. 6] | 0.799 | 250 µg/mL (≈ 1110 µM) | –
24 | O=C(O)c1ccc(C(=O)/C=C/c2ccccc2C(F)(F)F)cc1 [Nr. Crtl. 4] | 0.720 | 300 µg/mL (≈ 937 µM) | –
25 | O=C(/C=C/c1ccc(O)c(O)c1)c1ccc(Cl)cc1 [Nr. Crtl. 22] | 1.100 | 125 µg/mL (≈ 455 µM) | –
26 | O=C(O)c1ccc(C(=O)/C=C/c2cc(Br)cc(Br)c2)cc1 [Nr. Crtl. 38] | 2.896 | 2 µg/mL (≈ 4.88 µM) | –
27 | O=C(/C=C/c1ccc(Cl)cc1Cl)c1ccc(O)cc1 [Nr. Crtl. 31] | 1.896 | 20 µg/mL (≈ 68.2 µM) | –
28 | O=C(/C=C/c1ccc(Cl)cc1Cl)c1ccc(O)c(F)c1 [Nr. Crtl. 3] | 0.720 | 300 µg/mL (≈ 964 µM) | –
29 | O=C(/C=C/c1ccc(O)c(O)c1)c1ccccc1 [Nr. Crtl. 17] | 1.100 | 125 µg/mL (≈ 520 µM) | –
30 | O=C(/C=C/c1ccc(O)cc1)c1ccc(Cl)cc1 [Nr. Crtl. 21] | 1.100 | 125 µg/mL (≈ 483 µM) | –
31 | O=C(/C=C/c1ccccc1O)c1ccccc1 [Nr. Crtl. 27] | 1.401 | 62.5 µg/mL (≈ 279 µM) | –
32 | O=C(O)c1ccc(C(=O)/C=C/c2cc(Cl)cc(Cl)c2)cc1 [Nr. Crtl. 29] | 1.595 | 40 µg/mL (≈ 125 µM) | –
33 | O=C(/C=C/c1ccccc1O)c1ccc(Cl)cc1 [Nr. Crtl. 19] | 1.100 | 125 µg/mL (≈ 483 µM) | –
34 | O=C(/C=C/c1ccc(Cl)cc1Cl)c1cc(F)c(O)c(F)c1 [Nr. Crtl. 10] | 1.021 | 150 µg/mL (≈ 456 µM) | –
35 | O=C(O)c1ccc(C(=O)/C=C/c2ccc(Cl)cc2Cl)cc1 [Nr. Crtl. 30] | 1.595 | 40 µg/mL (≈ 125 µM) | –
36 | O=C(/C=C/c1cc(C(F)(F)F)cc(C(F)(F)F)c1)c1ccc(O)cc1 [Nr. Crtl. 36] | 2.720 | 3 µg/mL (≈ 8.33 µM) | –
37 | O=C(O)c1ccc(C(=O)/C=C/c2cc(C(F)(F)F)cc(C(F)(F)F)c2)cc1 [Nr. Crtl. 37] | 2.896 | 2 µg/mL (≈ 5.15 µM) | –
38 | O=C(O)c1ccc(C(=O)/C=C/c2cccc(Br)c2)cc1 [Nr. Crtl. 24] | 1.322 | 75 µg/mL (≈ 226 µM) | –
39 | O=C(O)c1ccc(C(=O)/C=C/c2cccc(Cl)c2)cc1 [Nr. Crtl. 23] | 1.322 | 75 µg/mL (≈ 262 µM) | –
40 | O=C(/C=C/c1cccc(Br)c1)c1ccc(O)cc1 [Nr. Crtl. 33] | 1.896 | 20 µg/mL (≈ 66 µM) | –
